{"source": "patent US7622438B1", "about": "“Protein formulation for promoting hard tissue formation” (Acologix, Inc., priority 2005, dated 2009)", "key": {"COX-2 [1]": {"system": "COX-2", "assay": "Gene expression microarray analysis in Clonetics hMSC cells (COX-2 mRNA)", "format": "cell-based, human", "conditions": "for COX-2 mRNA increase: 1000 ng/ml peptide", "method": "Materials and Methods: The effect of the peptide of SEQ ID No. 8 treatment on gene expression was assessed in the Clonetics hMSC cells using gene expression microarray analysis as previously described (Locklin et al., 2001). Briefly, cells were plated in five T-150 vented flasks at a density of 1.0×10^6 cells per flask in growth medium and cultured at 37° C. for 48 hours. Flasks containing either vehicle alone or the peptide of SEQ ID No. 8 (1000 ng/ml) were cultured for 24 hr or for 48 h in standard differentiation medium. At each time point, the vehicle and treatment flasks were trypsinized, cells removed and total RNA was extracted for analysis via the Qiagen Rneasy Kit (Qiagen). 8 μg of total RNA were amplified and biotin labeled. The mixture was hybridized to a U95A human gene expression microarray (Affymetrix) containing probes for 12,600 human genes. The chips were then washed, stained with phycoerythrin-streptavidin and read with an Affymetrix scanner. Hybridization intensity values to mRNA frequency were calculated in molecules per million. Analysis of intensity values was conducted using Spotfire Decision Site (Somerville, Mass.) software."}, "COX-2 [2]": {"system": "COX-2", "conditions": "Nagel et al., Journal of Cellular Biochemistry, 2004; cited from earlier work"}, "Smad1/5/8": {"system": "Smad1/5/8", "assay": "Phosphorylation of Smad1/5/8 by Western blotting in primary osteoblasts", "format": "cell-based, mouse", "conditions": "2 uM peptide added to 25 ng/mL BMP-2; FIG. 3", "method": "Phosphorylation of Smad1/5/8 was evaluated by Western blotting at 0, 0.5, 1, 2, 12, 24, 48 and 72 hours."}, "[3]": {"system": "hemi-calvariae from 4 day old Swiss Webster mice", "conditions": "Middleton-Hardie et al., ASBMR 2005; cited from earlier work"}, "[4]": {"system": "MC3T3-E1 subclone 4 cells", "assay": "BMP-2 stimulated PGE2 production by MC3T3 cells (ELISA)", "format": "cell-based, mouse", "conditions": "suboptimal rhBMP-2 plus varying doses of peptide, 24 hours; FIG. 2", "method": "Methods: MC3T3-E1 subclone 4 cells are neonatal mouse derived calvarial preosteoblasts with fibroblast morphology. […] For this experiment the MC3T3 cells were plated 10^5 cells per well in 24 well plates in growth medium (alpha MEM+1 mM sodium pyruvate+10% fetal bovine serum (FBS)). After 24 hours of culture the media was removed and replaced with assay media (alphaMEM+1 mM sodium pyruvate+2% FBS) containing the test substances. Each test group utilized 4 wells. After incubation for a further 24 hours the media was removed and the levels of PGE2 were determined using an ELISA (R&D Systems)."}, "[5]": {"system": "hard tissue forming cells", "assay": "General activity statements on hard tissue forming cells"}, "[6]": {"system": "dorsal muscle of mice (ICR)", "assay": "Ectopic bone formation from polymer pellets implanted in mouse dorsal muscle", "format": "in vivo", "source_text": "The mice were sacrificed 3 weeks later and the newly formed bones were isolated for evaluation using soft X-ray radiograph and bone mineral density determination."}, "human mesenchymal cells": {"system": "human mesenchymal cells", "assay": "PGE2 in human mesenchymal cells in culture", "format": "cell-based", "conditions": "peptide alone"}, "[7]": {"system": "hemi-calvariae from 4 day old Swiss Webster mice", "assay": "Mouse calvaria organ culture assay (PGE2, new bone formation histology)", "format": "cell-based", "conditions": "peptide 1, 10, 100 μg/mL daily for seven days", "source_text": "Methods: Calvarial organ cultures have been used for many years to study the regulation of bone formation and bone resorption. An advantage of this method compared to in vivo studies is the absence of confounding effects (such as hormonal and mechanical influences) meaning a more direct effect of the test substances on bone tissue can be determined. Also compared to isolated cell systems, interrelationships between the different cell types in the bone and between these cells and the bone matrix are preserved.\nBriefly, hemi-calvariae were isolated from 4 day old Swiss Webster mice and incubated in media on steel mesh grids. The peptide of SEQ ID NO. […] Samples of the conditioned media were collected daily for analysis of PGE2 concentration (R&D Systems ELISA kit). At the end of the culture the bones were analyzed for new bone formation and number of osteoblasts using histology."}, "[8]": {"system": "primary osteoblasts collected from fetal mouse calvaria", "assay": "Alkaline phosphatase (ALP) activity in primary osteoblasts under suboptimal BMP-2", "format": "cell-based", "method": "The peptide of SEQ ID No. 8 was added to this culture system at 0, 0.2, 0.4, 1.0, 2.0, and 4.0 μM. The levels of ALP were evaluated on days 0, 3, and 7."}, "[9]": {"conditions": "2 μM peptide with 25 ng/mL BMP-2"}}, "note": "“Also recorded” adds a separate entry of the source.", "data": [{"sequence": "TDLQERGDNDISPFSGDGQPFKD [SEQ ID No. 8]", "values": [{"measurement": "COX-2 mRNA increase", "setting": "COX-2 [1]; 24 h", "value": 3.6, "unit": "fold"}, {"measurement": "COX-2 mRNA increase", "setting": "COX-2 [1]; 48 h", "value": 2.2, "unit": "fold"}, {"measurement": "mRNA for cyclooxygenase-2 (COX-2) increase, summary", "setting": "COX-2 [1]; discussion summary of both time points", "value": "~3", "unit": "fold"}, {"measurement": "COX-2 in human mesenchymal stem cells", "setting": "COX-2 [2]", "value": "upregulated"}, {"measurement": "time over which phosphorylation of Smad1/5/8 was detectable", "setting": "Smad1/5/8", "value": "0.5 to 48", "unit": "h"}, {"measurement": "production of PGE2 in mouse calvaria organ culture assay", "setting": "[3]", "value": "dose dependently upregulated"}, {"measurement": "BMP-2 induced PGE2 production", "setting": "[4]", "value": "increases; also recorded: dose dependent production"}, {"measurement": "biological activities for the purpose of this invention, relative ranking", "setting": "[5]", "value": "highest activities"}, {"measurement": "enhancement of the BMP-2 effects on bone formation (size and mineral density of ectopic ossicles)", "setting": "[6]; 3 ug BMP-2 in 30 mg polymer, peptide 0-1250 ug, three weeks", "value": "significant enhancement"}, {"measurement": "efficacy of the peptide on bone formation (size and mineral density of ectopic ossicles)", "setting": "[6]; 5 ug BMP-2 in 30 mg polymer, peptide 0-1250 ug, three weeks", "value": "unclear"}, {"measurement": "increase in bone formation", "setting": "[6]; peptide added to suboptimal dose, 3 μg of rhBMP-2", "value": "significant and dose dependent increase"}, {"measurement": "increase in PGE2", "setting": "human mesenchymal cells", "value": "did not result in a significant increase"}, {"measurement": "PGE2 production", "setting": "[7]; FIG. 4", "value": "significant increases"}, {"measurement": "bone cell density", "setting": "[7]; FIG. 5", "value": "significant increases"}, {"measurement": "new bone formation", "setting": "[7]; FIG. 5", "value": "significant increases"}, {"measurement": "osteoblast surface", "setting": "[7]; FIG. 5", "value": "significant increases"}, {"measurement": "ALP activity increase as compared with BMP-2 treated cells without addition of the peptide", "setting": "[8]; [9]", "value": "~2", "unit": "times"}, {"measurement": "ALP activity increase as compared with the control group", "setting": "[8]; [9]", "value": "about 3 times"}, {"measurement": "ALP activity in osteoblastic cells", "setting": "[8]; BMP-2 (suboptimal, 25 ng/mL) plus peptide 0.2-4.0 μM, FIG. 1", "value": "significantly increased; also recorded: dose dependent upregulation"}]}]}
